From ChEMBL document CHEMBL3044789, “Comparing weed and crop seedling response to pre-emergence pendimethalin application in Corchorus olitorius and Abelmoschus esculentus” (Crop Prot, 2006)

How the values were obtained:
[1] = test system: Rottboellia cochinchinensis; assay: Herbicidal activity against Rottboellia cochinchinensis in Abelmoschus esculentus plots assessed as weed cover at 0.33 kg a.i/ha after 7 weeks (reference value: 14.7 +/- 0.46 %); format: functional
[2] = test system: Chromolaena odorata; assay: Herbicidal activity against Chromolaena odorata in Corchorus olitorius plots assessed as weed cover at 1.32 kg a.i/ha after 4 weeks (reference value: 20.1+/- 0.57 %); format: functional
[3] = test system: Corchorus olitorius; assay: Phytotoxicity in Corchorus olitorius assessed as seedling injury at 0.33 kg a.i/ha applied as solution after 7 weeks relative to control; format: organism-based; settings: in vivo, other, 1176 h
[4] = test system: Synedrella nodiflora; assay: Herbicidal activity against Synedrella nodiflora in Abelmoschus esculentus plots assessed as weed cover at 0.99 kg a.i/ha after 4 weeks (reference value: 22.6 +/- 0.49 %); format: functional
[5] = test system: Calopogonium mucunoides; assay: Herbicidal activity against Calopogonium mucunoides in Corchorus olitorius plots assessed as weed cover at 1.32 kg a.i/ha after 4 weeks (reference value: 20.1+/- 0.57 %); format: functional
[6] = test system: Synedrella nodiflora; assay: Herbicidal activity against Synedrella nodiflora in Corchorus olitorius plots assessed as weed recovery at 0.66 kg a.i/ha after 2 weeks (reference value: 78.3 +/- 0.74 %); format: functional
[7] = test system: Euphorbia heterophylla; assay: Herbicidal activity against Euphorbia heterophylla in Corchorus olitorius plots assessed as weed cover at 0.33 kg a.i/ha after 7 weeks (reference value: 1.7 +/- 0.56 %); format: functional
[8] = test system: Corchorus olitorius; assay: Phytotoxicity in Corchorus olitorius assessed as shoot length at 0.66 kg a.i/ha treated to soil after 7 weeks (reference value: 23.7 +/- 0.10 mm); format: organism-based; settings: in vivo, other, 1176 h
[9] = test system: Euphorbia heterophylla; assay: Herbicidal activity against Euphorbia heterophylla in Corchorus olitorius plots assessed as weed cover at 0.66 kg a.i/ha after 7 weeks (reference value: 1.7 +/- 0.56 %); format: functional
[10] = test system: Cyperus rotundus; assay: Herbicidal activity against Cyperus rotundus form in Abelmoschus esculentus plots assessed as minor weed growth at 0.66 kg a.i/ha after 2 weeks; format: functional
[11] = test system: Ageratum conyzoides; assay: Herbicidal activity against Ageratum conyzoides in Abelmoschus esculentus plots assessed as major weed growth at 0.33 kg a.i/ha after 2 weeks; format: functional
[12] = test system: Commelina diffusa; assay: Herbicidal activity against Commelina diffusa in Corchorus olitorius plots assessed as minor weed growth at 0.66 kg a.i/ha after 2 weeks; format: functional
[13] = test system: Euphorbia heterophylla; assay: Herbicidal activity against Euphorbia heterophylla in Abelmoschus esculentus plots assessed as weed recovery at 0.66 kg a.i/ha after 2 weeks (reference value: 60.1 +/- 0.46 %); format: functional
[14] = test system: Synedrella nodiflora; assay: Herbicidal activity against Synedrella nodiflora in Abelmoschus esculentus plots assessed as weed recovery at 0.33 kg a.i/ha after 2 weeks (reference value: 60.1 +/- 0.46 %); format: functional
[15] = test system: Synedrella nodiflora; assay: Herbicidal activity against Synedrella nodiflora in Corchorus olitorius plots assessed as weed cover at 0.99 kg a.i/ha after 7 weeks (reference value: 1.7 +/- 0.56 %); format: functional
[16] = test system: Corchorus olitorius; assay: Phytotoxicity in Corchorus olitorius assessed as seedling emergence at 1.32 kg a.i/ha treated to soil after 7 weeks (reference value: 95 +/- 0.05 %); format: organism-based; settings: in vivo, other, 1176 h
[17] = test system: Cyperus rotundus; assay: Herbicidal activity against Cyperus rotundus in Corchorus olitorius plots assessed as minor weed growth at 0.66 kg a.i/ha after 2 weeks; format: functional
[18] = test system: Euphorbia heterophylla; assay: Herbicidal activity against Euphorbia heterophylla in Corchorus olitorius plots assessed as major weed growth at 0.33 kg a.i/ha after 2 weeks; format: functional
[19] = test system: Ageratum conyzoides; assay: Herbicidal activity against Ageratum conyzoides in Abelmoschus esculentus plots assessed as weed cover at 1.32 kg a.i/ha after 2 weeks (reference value: 63.5 +/- 0.29 %); format: functional
[20] = test system: Abelmoschus esculentus; assay: Phytotoxicity in Abelmoschus esculentus assessed as seedling emergence at 0.33 kg a.i/ha treated to soil after 7 weeks (reference value: 95 +/- 0.05 %); format: organism-based; settings: in vivo, other, 1176 h
[21] = test system: Euphorbia heterophylla; assay: Herbicidal activity against Euphorbia heterophylla in Abelmoschus esculentus plots assessed as weed recovery at 1.32 kg a.i/ha after 2 weeks (reference value: 60.1 +/- 0.46 %); format: functional
[22] = test system: Calopogonium mucunoides; assay: Herbicidal activity against Calopogonium mucunoides in Abelmoschus esculentus plots assessed as weed cover at 1.32 kg a.i/ha after 4 weeks (reference value: 22.6 +/- 0.49 %); format: functional
[23] = test system: Synedrella nodiflora; assay: Herbicidal activity against Synedrella nodiflora in Corchorus olitorius plots assessed as weed cover at 0.66 kg a.i/ha after 7 weeks (reference value: 1.7 +/- 0.56 %); format: functional
[24] = test system: Corchorus olitorius; assay: Phytotoxicity in Corchorus olitorius assessed as seedling emergence at 0.33 kg a.i/ha treated to soil after 7 weeks (reference value: 95 +/- 0.05 %); format: organism-based; settings: in vivo, other, 1176 h
[25] = test system: Calopogonium mucunoides; assay: Herbicidal activity against Calopogonium mucunoides in Corchorus olitorius plots assessed as weed cover at 1.32 kg a.i/ha after 7 weeks (reference value: 1.7 +/- 0.56 %); format: functional
[26] = test system: Chromolaena odorata; assay: Herbicidal activity against Chromolaena odorata in Corchorus olitorius plots assessed as weed cover at 0.99 kg a.i/ha after 4 weeks (reference value: 20.1+/- 0.57 %); format: functional
[27] = test system: Euphorbia heterophylla; assay: Herbicidal activity against Euphorbia heterophylla in Corchorus olitorius plots assessed as weed cover at 0.33 kg a.i/ha after 4 weeks (reference value: 20.1+/- 0.57 %); format: functional
[28] = test system: Calopogonium mucunoides; assay: Herbicidal activity against Calopogonium mucunoides in Corchorus olitorius plots assessed as weed recovery at 0.33 kg a.i/ha after 2 weeks (reference value: 78.3 +/- 0.74 %); format: functional
[29] = test system: Euphorbia heterophylla; assay: Herbicidal activity against Euphorbia heterophylla in Abelmoschus esculentus plots assessed as weed cover at 0.99 kg a.i/ha after 4 weeks (reference value: 22.6 +/- 0.49 %); format: functional
[30] = test system: Calopogonium mucunoides; assay: Herbicidal activity against Calopogonium mucunoides in Abelmoschus esculentus plots assessed as weed cover at 0.66 kg a.i/ha after 4 weeks (reference value: 22.6 +/- 0.49 %); format: functional
[31] = test system: Chromolaena odorata; assay: Herbicidal activity against Chromolaena odorata in Corchorus olitorius plots assessed as weed cover at 0.33 kg a.i/ha after 7 weeks (reference value: 1.7 +/- 0.56 %); format: functional
[32] = test system: Synedrella nodiflora; assay: Herbicidal activity against Synedrella nodiflora in Corchorus olitorius plots assessed as major weed growth at 0.99 kg a.i/ha after 2 weeks; format: functional
[33] = test system: Asteraceae; assay: Herbicidal activity against Aspilia africana in Corchorus olitorius plots assessed as weed cover at 0.66 kg a.i/ha after 7 weeks (reference value: 1.7 +/- 0.56 %); format: functional
[34] = test system: Euphorbia heterophylla; assay: Herbicidal activity against Euphorbia heterophylla in Abelmoschus esculentus plots assessed as weed cover at 0.33 kg a.i/ha after 4 weeks (reference value: 22.6 +/- 0.49 %); format: functional
[35] = test system: Euphorbia heterophylla; assay: Herbicidal activity against Euphorbia heterophylla in Abelmoschus esculentus plots assessed as major weed growth at 0.99 kg a.i/ha after 2 weeks; format: functional
[36] = test system: Synedrella nodiflora; assay: Herbicidal activity against Synedrella nodiflora in Corchorus olitorius plots assessed as weed recovery at 0.99 kg a.i/ha after 2 weeks (reference value: 78.3 +/- 0.74 %); format: functional
[37] = test system: Calopogonium mucunoides; assay: Herbicidal activity against Calopogonium mucunoides in Abelmoschus esculentus plots assessed as weed cover at 0.99 kg a.i/ha after 7 weeks (reference value: 14.7 +/- 0.46 %); format: functional

CCC(CC)Nc1c([N+](=O)[O-])cc(C)c(C)c1[N+](=O)[O-] [PENDIMETHALIN]
Activity [1]: 90% | Activity [2]: 33.3% | Activity [3]: 18.3% | Activity [4]: 39.2% | Activity [5]: 33.3% | Activity [6]: 33.3% | Activity [7]: 100% | Activity [8]: 20.8 mm | Activity [9]: 100% | Activity [10]: 1 /m2 | Activity [11]: 31 /m2 | Activity [12]: 1 /m2 | Activity [13]: 47.9% | Activity [14]: 39.2% | Activity [15]: 95% | Activity [16]: 83.3% | Activity [17]: 1 /m2 | Activity [18]: 31 /m2 | Activity [19]: 45% | Activity [20]: 85% | Activity [21]: 33.2% | Activity [22]: 36.2% | Activity [23]: 100% | Activity [24]: 85% | Activity [25]: 95% | Activity [26]: 48.3% | Activity [27]: 73.3% | Activity [28]: 31.7% | Activity [29]: 39.2% | Activity [30]: 47.9% | Activity [31]: 100% | Activity [32]: 31 /m2 | Activity [33]: 100% | Activity [34]: 53.8% | Activity [35]: 31 /m2 | Activity [36]: 21.7% | Activity [37]: 83.9%
